The target in experiment [1] is CLR/RAMP2 receptor complex (UniProt Q16602).
The target in experiment [2] is T1, CLR/RAMP1 (Homo sapiens, UniProt O60894+Q16602). Nature of the experiment: CLR/RAMP1 cAMP assay, agonist mode (DiscoveRx HitHunter cAMP XS+). The class given is cell-based. To be noted: for CLR/RAMP1 Max Activity % of control: agonist mode, positive control CGRP, 1321N1 cells. How it is done: (§1) The bioactivity of synthetic analogs was studied using cells that stably express CLR/RAMP1 (1321N1 cells) or CLR/RAMP2 (CHO-K1 cells) receptors using CLR/RAMP1 cAMP and CLR/RAMP2 arrestin assays from DiscoveRx (Fremont, Ca). In receptor-activation assays, the dose-dependent stimulatory response was studied in duplicate, at 10 different concentrations.
T1 sequence (Q16602 23-461): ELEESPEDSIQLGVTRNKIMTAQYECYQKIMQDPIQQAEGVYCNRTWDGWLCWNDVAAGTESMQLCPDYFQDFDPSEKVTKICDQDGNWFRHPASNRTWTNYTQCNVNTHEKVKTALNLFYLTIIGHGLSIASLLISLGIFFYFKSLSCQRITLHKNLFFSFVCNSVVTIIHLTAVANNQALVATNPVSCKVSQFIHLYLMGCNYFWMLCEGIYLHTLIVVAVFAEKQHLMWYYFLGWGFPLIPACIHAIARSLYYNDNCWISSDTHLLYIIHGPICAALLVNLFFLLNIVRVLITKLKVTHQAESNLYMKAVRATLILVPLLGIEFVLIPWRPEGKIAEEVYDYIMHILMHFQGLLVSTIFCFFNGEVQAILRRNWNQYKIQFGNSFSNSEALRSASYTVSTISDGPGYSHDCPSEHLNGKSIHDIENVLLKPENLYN
T1 sequence (O60894 27-148): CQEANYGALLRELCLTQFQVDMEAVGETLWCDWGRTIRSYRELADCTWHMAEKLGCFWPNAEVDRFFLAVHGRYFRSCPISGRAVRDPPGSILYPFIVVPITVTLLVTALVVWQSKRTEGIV
For the analysis of signaling in CLR/RAMP1-expressing cells, cAMP Hunter cell lines were expanded from freezer stocks, and cells were seeded in white walled, 384-well microplates and incubated at 37C for the appropriate time. The activity was determined using the DiscoveRx HitHunter cAMP XS+ assay. Media was aspirated from cells and replaced with 15 μl 2:1 HBSS/10mM Hepes:cAMP XS+ Ab reagent. Intermediate dilution of sample stocks was performed to generate 4X sample in assay buffer, and 5 μl of 4X sample was added to cells and incubated at 37C or room temperature for the appropriate time. Vehicle concentration was 1%.
Microplates were read with a PerkinElmer instrument for chemiluminescent signal detection.
(Cyclic AMP is a second messenger, typically raised through Gs and lowered through Gi signalling.)

Experiment [3] has as its target CLR/RAMP1 receptor complex (UniProt Q16602).
The target in experiment [4] is T2, CLR/RAMP2 (Homo sapiens, UniProt O60895+Q16602). Nature of the experiment: CLR/RAMP2 PathHunter β-arrestin assay, agonist mode. To be noted: for CLR/RAMP2 Max Activity % of control: agonist mode, positive control ADM, CHO-K1 cells. Format: cell-based. Here is the method:
as §1
(§2) The CLR/RAMP2 signaling was assayed using the CLR/RAMP2 PathHunter β-Arrestin assay. In this assay, the GPCR was fused in frame with a small enzyme donor fragment ProLink (PK) and co-expressed in cells stably expressing a fusion protein of β-arrestin and an N-terminal deletion mutant of β-galactosidase (i.e., enzyme acceptor or EA). Activation of the CLR/RAMP2 stimulates binding of β-arrestin to the PK-tagged receptor and leads to an increase in enzyme activity that can be measured using chemiluminescent PathHunter Detection Reagents. PathHunter cell lines were seeded in white walled, 384-well microplates and incubated at 37C prior to testing. For agonist determination, intermediate dilution of sample stocks was performed to generate 5X sample in assay buffer, and 5 μl of 5X sample was added to cells and incubated at 37C for 90 minutes. Vehicle concentration was 1%. For antagonistic activity determination, cells were pre-incubated with antagonist followed by agonist challenge at the EC80 concentration.

Experiment [5] deals with T1, CLR/RAMP1. Nature of the experiment: CLR/RAMP1 cAMP assay, antagonist mode (CGRP challenge at EC80). To be noted: for Emax: maximum inhibition of CGRP-mediated signaling, in % of a positive control, read-out: CLR/RAMP1 Max Activity % of control (antagonistic). The class given is cell-based.
Experiment [6] concerns the target T2, CLR/RAMP2. Nature of the experiment: CLR/RAMP2 PathHunter β-arrestin assay, antagonist mode (ADM challenge at EC80). The class given is cell-based. Conditions: for IC50: inhibition of ADM-mediated signaling, CHO-K1 cells, pre-incubation with antagonist, then agonist at EC80, β-arrestin read-out; for Emax: maximum inhibition of ADM-mediated signaling, in % of a positive control, read-out: CLR/RAMP2 Max Activity % of control (antagonistic). Here is the method: as §1, §2

The target of experiment [7] is CLR/RAMP2 receptor complex (UniProt Q16602). This is another data set of the same source.

Chain of CLR/RAMP2 receptor complex (Q16602 23-461, chain 1 of 2): as the sequence (Q16602 23-461) above
Chain of CLR/RAMP2 receptor complex (O60895 43-175, chain 2 of 2, further chain): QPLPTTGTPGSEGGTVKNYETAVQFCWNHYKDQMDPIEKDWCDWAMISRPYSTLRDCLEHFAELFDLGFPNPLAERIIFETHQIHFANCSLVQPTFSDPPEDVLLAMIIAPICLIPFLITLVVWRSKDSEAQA
T2 sequence (Q16602 23-461): as the sequence (Q16602 23-461) above
T2 sequence (O60895 43-175): as the sequence (O60895 43-175, chain 2 of 2, further chain) above
Chain of CLR/RAMP1 receptor complex (Q16602 23-461, chain 1 of 2): as the sequence (Q16602 23-461) above
Chain of CLR/RAMP1 receptor complex (O60894 27-148, chain 2 of 2, further chain): as the sequence (O60894 27-148) above

With CGRP8-37 (peptide), in experiment [1], the IC50 of inhibition of ADM-mediated CLR/RAMP2 β-arrestin signalling (EC80 of ADM; pair blocked: ADM + m25) is > 10 µM.

For the compound `CSCC[C@H](NC(=O)CNC(=O)CNC(=O)[C@H](CO)NC(=O)[C@H](CCCNC(=N)N)NC(=O)[C@H](CO)NC(=O)[C@H](CC(C)C)NC(=O)[C@H](CC(C)C)NC(=O)CNC(=O)[C@H](C)NC(=O)[C@H](CC(C)C)NC(=O)[C@H](CCCNC(=N)N)NC(=O)[C@H](Cc1c[nH]cn1)NC(=O)[C@@H](NC(=O)[C@@H](NC(=O)[C@@H]1CSSC[C@H](NC(=O)[C@H](C)N)C(=O)N[C@@H](CC(N)=O)C(=O)N[C@@H]([C@@H](C)O)C(=O)N[C@@H](C)C(=O)N[C@@H]([C@@H](C)O)C(=O)N1)C(C)C)[C@@H](C)O)C(=O)N[C@H](C(=O)N[C@@H](CCCCN)C(=O)N[C@@H](CO)C(=O)N[C@@H](CC(N)=O)C(=O)N[C@@H](Cc1ccccc1)C(=O)N[C@H](C(=O)N1CCC[C@H]1C(=O)N[C@H](C(=O)N[C@@H](CC(N)=O)C(=O)N[C@H](C(=O)NCC(=O)N[C@@H](CO)C(=O)N[C@@H](CCCCN)C(=O)N[C@@H](C)C(=O)N[C@@H](Cc1ccccc1)C(N)=O)C(C)C)[C@@H](C)O)C(C)C)C(C)C` [CGRP, calcitonin gene-related peptide], the “CLR/RAMP1 Max Activity % of control” value on CLR/RAMP1 [2] is on record as 103 % of control.

ADM22-52 (peptide): the IC50 of inhibition of CGRP-mediated CLR/RAMP1 cAMP signalling (EC80 of CGRP; pair blocked: m4 + m24) in experiment [3] stood at 6.6 µM. Moreover, in experiment [1], the IC50 of inhibition of ADM-mediated CLR/RAMP2 β-arrestin signalling (EC80 of ADM; pair blocked: ADM + m25) came to 0.256 µM.

Consider `CC[C@H](C)[C@H](NC(=O)[C@H](CCC(N)=O)NC(=O)[C@H](Cc1c[nH]cn1)NC(=O)[C@H](C)NC(=O)[C@H](CC(C)C)NC(=O)[C@H](CCCCN)NC(=O)[C@H](CCC(N)=O)NC(=O)[C@@H](NC(=O)[C@@H](NC(=O)[C@@H]1CSSC[C@H](NC(=O)CNC(=O)[C@@H](N)Cc2ccccc2)C(=O)N[C@@H](CCCNC(=N)N)C(=O)N[C@@H](Cc2ccccc2)C(=O)NCC(=O)N[C@@H]([C@@H](C)O)C(=O)N1)[C@@H](C)O)C(C)C)C(=O)N[C@@H](Cc1ccc(O)cc1)C(=O)N[C@@H](CCC(N)=O)C(=O)N[C@@H](Cc1ccccc1)C(=O)N[C@H](C(=O)N[C@@H](CC(=O)O)C(=O)N[C@@H](CCCCN)C(=O)N[C@@H](CC(=O)O)C(=O)N[C@@H](CCCCN)C(=O)N[C@@H](CC(=O)O)C(=O)N[C@@H](CC(N)=O)C(=O)N[C@H](C(=O)N[C@@H](C)C(=O)N1CCC[C@H]1C(=O)N[C@@H](CCCNC(=N)N)C(=O)N[C@@H](CO)C(=O)N[C@@H](CCCCN)C(=O)N[C@H](C(=O)N[C@@H](CO)C(=O)N1CCC[C@H]1C(=O)N[C@@H](CCC(N)=O)C(=O)NCC(=O)N[C@@H](Cc1ccc(O)cc1)C(N)=O)[C@@H](C)CC)C(C)C)[C@@H](C)O` [ADM14-52, adrenomedullin 14–52, reference compound], for which the “CLR/RAMP1 Max Activity % of control” value on CLR/RAMP1 [2] was 69 % of control. The “CLR/RAMP2 Max Activity % of control” value on CLR/RAMP2 [4] is listed as 102 % of control.

Turning to `CCCCCCCCCCCCCCCC(=O)NCC(=O)N[C@H]1CSSC[C@@H](C(=O)N[C@H](C(=O)N[C@H](C(=O)N[C@@H](CCC(N)=O)C(=O)N[C@@H](CCCCN)C(=O)N[C@@H](CC(C)C)C(=O)N[C@@H](C)C(=O)N[C@@H](Cc2c[nH]cn2)C(=O)N[C@@H](CCC(N)=O)C(=O)N[C@H](C(=O)N[C@@H](Cc2ccc(O)cc2)C(=O)N[C@@H](CCC(N)=O)C(=O)N[C@@H](Cc2ccccc2)C(=O)N[C@H](C(=O)N[C@@H](CC(=O)O)C(=O)N[C@@H](CCCCN)C(=O)N[C@@H](CC(=O)O)C(=O)N[C@@H](CCCCN)C(=O)N[C@@H](CC(=O)O)C(=O)N[C@@H](CC(N)=O)C(=O)N[C@H](C(=O)N[C@@H](C)C(=O)N2CCC[C@H]2C(=O)N[C@@H](CCCNC(=N)N)C(=O)N[C@@H](CO)C(=O)N[C@@H](CCCCN)C(=O)N[C@H](C(=O)N[C@@H](CO)C(=O)N2CCC[C@H]2C(=O)N[C@@H](CCC(N)=O)C(=O)NCC(=O)N[C@@H](Cc2ccc(O)cc2)C(N)=O)[C@@H](C)CC)C(C)C)[C@@H](C)O)[C@@H](C)CC)C(C)C)[C@@H](C)O)NC(=O)[C@H]([C@@H](C)O)NC(=O)CNC(=O)[C@H](Cc2ccccc2)NC(=O)[C@H](CCCNC(=N)N)NC1=O` [Agonist 3], the “CLR/RAMP2 Max Activity % of control” value at CLR/RAMP2 [4] is 78 % of control.

Regarding `CC[C@H](C)[C@H](NC(=O)[C@H](CCC(N)=O)NC(=O)[C@H](Cc1c[nH]cn1)NC(=O)[C@H](C)NC(=O)[C@H](CC(C)C)NC(=O)[C@H](CCCCN)NC(=O)[C@H](CCC(N)=O)NC(=O)[C@@H](NC(=O)[C@@H](N)[C@@H](C)O)C(C)C)C(=O)N[C@@H](Cc1ccc(O)cc1)C(=O)N[C@@H](CCC(N)=O)C(=O)N[C@@H](Cc1ccccc1)C(=O)N[C@H](C(=O)N[C@@H](CC(=O)O)C(=O)N[C@@H](CCCCN)C(=O)N[C@@H](CC(=O)O)C(=O)N[C@@H](CCCCN)C(=O)N[C@@H](CC(=O)O)C(=O)N[C@@H](CC(N)=O)C(=O)N[C@H](C(=O)N[C@@H](C)C(=O)N1CCC[C@H]1C(=O)N[C@@H](CCCNC(=N)N)C(=O)N[C@@H](CO)C(=O)N[C@@H](CCCCN)C(=O)N[C@H](C(=O)N[C@@H](CO)C(=O)N1CCC[C@H]1C(=O)N[C@@H](CCC(N)=O)C(=O)NCC(=O)N[C@@H](Cc1ccc(O)cc1)C(N)=O)[C@@H](C)CC)C(C)C)[C@@H](C)O` [ADM22-52, reference compound], on CLR/RAMP1 [5], inhibition was half-maximal at 6.6 µM (IC50) and the Emax was found to be 57%. In addition, at CLR/RAMP2 [6], the IC50 came out at 0.256 µM and the Emax came to 105%.

Take adrenomedullin 2 (peptide): the EC50 of CLR/RAMP2 signalling (CHO-K1 cells, PathHunter β-Arrestin assay) in experiment [7] turned out to be 0.07 µM.

Consider `CC[C@H](C)[C@H](NC(=O)[C@H](CCC(N)=O)NC(=O)[C@H](Cc1c[nH]cn1)NC(=O)[C@H](C)NC(=O)[C@H](CC(C)C)NC(=O)[C@H](CCCCN)NC(=O)[C@H](CCC(N)=O)NC(=O)[C@@H](NC(=O)[C@@H](NC(=O)[C@@H]1CSSC[C@H](NC(=O)CNC(=O)[C@@H](N)CCCCN)C(=O)N[C@@H](CCCNC(=N)N)C(=O)N[C@@H](Cc2ccccc2)C(=O)NCC(=O)N[C@@H]([C@@H](C)O)C(=O)N1)[C@@H](C)O)C(C)C)C(=O)N[C@@H](Cc1ccc(O)cc1)C(=O)N[C@@H](CCC(N)=O)C(=O)N[C@@H](Cc1ccccc1)C(=O)N[C@H](C(=O)N[C@@H](CC(=O)O)C(=O)N[C@@H](CCCCN)C(=O)N[C@@H](CC(=O)O)C(=O)N[C@@H](CCCCN)C(=O)N[C@@H](CC(=O)O)C(=O)N[C@@H](CC(N)=O)C(=O)N[C@@H](CO)C(=O)N[C@@H](C)C(=O)N1CCC[C@H]1C(=O)N[C@H](C(=O)N[C@@H](CC(=O)O)C(=O)N1CCC[C@H]1C(=O)N[C@@H](CO)C(=O)N[C@@H](CO)C(=O)N1CCC[C@H]1C(=O)N[C@@H](Cc1c[nH]cn1)C(=O)N[C@@H](CO)C(=O)N[C@@H](Cc1ccc(O)cc1)C(N)=O)C(C)C)[C@@H](C)O` [Agonist 2], for which the EC50 at CLR/RAMP1 [2] (1321N1 cells stably expressing CLR/RAMP1, cAMP read-out, chemiluminescence, 10-point dose response, 3-fold dilution, in duplicate) came out at 0.031 µM; on CLR/RAMP2 [4] (CHO-K1 cells stably expressing CLR/RAMP2, β-arrestin recruitment, 90 min at 37C, 10-point dose response in duplicate), 0.018 µM. Further, the “CLR/RAMP1 Max Activity % of control” value at CLR/RAMP1 [2] was 95 % of control. For the same compound, the “CLR/RAMP2 Max Activity % of control” value at CLR/RAMP2 [4] is reported as 115 % of control.

In turn, adrenomedullin 14–52 (peptide) had an EC50 of CLR/RAMP2 signalling (CHO-K1 cells, PathHunter β-Arrestin assay) in experiment [7] of 0.009 µM.

Take `CC[C@H](C)[C@H](NC(=O)[C@H](CCC(N)=O)NC(=O)[C@H](Cc1c[nH]cn1)NC(=O)[C@H](C)NC(=O)[C@H](CC(C)C)NC(=O)[C@H](CCCCN)NC(=O)[C@H](CCC(N)=O)NC(=O)[C@@H](NC(=O)[C@@H](N)[C@@H](C)O)C(C)C)C(=O)N[C@@H](Cc1ccc(O)cc1)C(=O)N[C@@H](CCC(N)=O)C(=O)N[C@@H](Cc1ccccc1)C(=O)N[C@H](C(=O)N[C@@H](CC(=O)O)C(=O)N[C@@H](CCCCN)C(=O)N[C@@H](CC(=O)O)C(=O)N[C@@H](CCCCN)C(=O)N[C@@H](CC(=O)O)C(=O)N[C@@H](CC(N)=O)C(=O)N[C@@H](CO)C(=O)N[C@@H](C)C(=O)N1CCC[C@H]1C(=O)N[C@H](C(=O)N[C@@H](CC(=O)O)C(=O)N1CCC[C@H]1C(=O)N[C@@H](CO)C(=O)N[C@@H](CO)C(=O)N1CCC[C@H]1C(=O)N[C@@H](Cc1c[nH]cn1)C(=O)N[C@@H](CO)C(=O)N[C@@H](Cc1ccc(O)cc1)C(N)=O)C(C)C)[C@@H](C)O` [Antagonist 1–4]: at CLR/RAMP1 [5], the IC50 turned out to be 1.12 µM and the Emax stood at 106%. For the same compound, at CLR/RAMP2 [6], the IC50 came out at 0.289 µM and the Emax came out at 101%.

The term IC50 denotes the point on the concentration scale where inhibition reaches its midpoint. As a reminder, the EC50 is the concentration that produces a half-maximal response.
